Experimental data from patent US20240110004A1 (Northwestern University, priority 2022, published 2024).
Where no end group is shown, it is not given here.

Legend:
[1] = test system: HdhQ111 cells; assay: Cell viability (cell rescue) of serum-starved HdhQ111 cells; type: cell-based, mouse; conditions: 3 μM with respect to peptide, once a day for 3 days; compared to the vehicle control
Procedure: FIG. 3A: Cell viability of HV3-TAT peptide and PLPs. Compounds treated to the HdhQ111 cells once a day for 3 days. Concentration was 3 μM with respect to peptide. FIG. 3B: VCP binding assay results for HV3-TAT, P1, P2, and P4.
Cell Viability Methods: In vitro assays were carried out to examine the bioactivity of the PLPs, P1, P2, P3, and P4 and to compare against the known, active HV3-TAT. […] HdhQ111 cells were immortalized from knock-in mice carrying 111 CAG repeats in the mouse Htt gene.
To verify that the PLPs retain bioactivity after being exposed to enzymes or serum treatments, the viability of HD mouse mutant striatal HdhQ111 cells was assessed following treatment with HV3-TAT and P1. […] Cells were maintained at 33° C. and 5% CO2 with a relative humidity of 95%. HdQ111 cells were plated in 96-well plates at a density of 5000 per well and then left to attach for 24 h. Cells were treated with HV3-TAT or PLPs at 3 μM with respect to peptide once a day, for 3 days. The medium was replaced every day. After 72 h, cells were washed 3 times with PBS buffer. At this point, 20 μL of CTB reagent in 80 uL of medium was added, and the cells incubated for 3 hours at 37° C. Fluorescence was measured at 590 nm with excitation at 560 nm using a Perkin Elmer EnSpire plate reader. The average background fluorescence of CTB in media without cells was subtracted from the average fluorescence readings of the experimental wells. Viability was calculated as the average background-subtracted signal in a well compared to that of a negative control well (treatment with vehicle or media). Three replicates were performed for each independent sample. 10% DMSO was used as a positive control and untreated cells in complete medium as a negative control. Viability is reported as a percentage of untreated cells.

[2] = molecular target: T1, interaction between VCP and mtHtt (Homo sapiens, UniProt P55072); assay: VCP binding assay: association of VCP to mtHtt by immunoprecipitation and western blot in HEK293 cells; type: cell-based; conditions: HEK293 cells co-transfected with GFP-VCP and myc-Q73 FL, 3 μM, three doses
T1 construct: GFP; expressed in transfected cells; host or cells: HEK293
T1 sequence (P55072 whole entry): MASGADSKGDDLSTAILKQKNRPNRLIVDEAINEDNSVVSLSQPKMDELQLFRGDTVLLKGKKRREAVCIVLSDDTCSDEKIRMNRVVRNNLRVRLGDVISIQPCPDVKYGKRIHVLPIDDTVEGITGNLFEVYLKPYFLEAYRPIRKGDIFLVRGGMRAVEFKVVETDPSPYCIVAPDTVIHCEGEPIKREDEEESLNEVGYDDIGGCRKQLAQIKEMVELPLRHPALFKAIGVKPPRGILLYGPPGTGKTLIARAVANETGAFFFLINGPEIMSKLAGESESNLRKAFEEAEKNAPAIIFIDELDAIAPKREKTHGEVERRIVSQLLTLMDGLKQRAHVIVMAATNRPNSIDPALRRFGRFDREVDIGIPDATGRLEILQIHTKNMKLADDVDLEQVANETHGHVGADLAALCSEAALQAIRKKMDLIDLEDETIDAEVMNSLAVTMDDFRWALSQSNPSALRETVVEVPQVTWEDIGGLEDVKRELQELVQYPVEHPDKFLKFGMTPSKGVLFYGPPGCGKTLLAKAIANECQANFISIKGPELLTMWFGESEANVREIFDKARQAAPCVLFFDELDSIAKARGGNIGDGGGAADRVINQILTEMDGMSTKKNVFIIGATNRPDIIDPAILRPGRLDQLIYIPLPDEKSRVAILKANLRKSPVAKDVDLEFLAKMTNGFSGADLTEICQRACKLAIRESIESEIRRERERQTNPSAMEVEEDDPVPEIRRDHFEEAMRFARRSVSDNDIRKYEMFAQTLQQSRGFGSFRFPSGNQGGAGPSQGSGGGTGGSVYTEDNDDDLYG
Procedure: Therefore, target engagement protein binding assays were conducted. HEK293 cells were cultured and plated one day before treatment. Cells were pre-treated with HV3-TAT or PLPs at 3 μM for 2 h. Cells were then co-transfected with GFP-VCP and myc-Q73 FL plasmids. Cells were treated with a second dose of peptide or PLPs 6 hours after transfection, and a final third dose of peptide or PLPs treatment was administered 24 hours after transfection. Cell total lysate was harvested 48 hours after transfection, and to confirm binding of PLPs to VCP in cells, association of VCP to mtHtt was quantified by immunoprecipitation (IP) followed by western blot upon treatment of HV3-TAT peptide and PLPs.

[3] = test system: HdhQ111 cells; assay: Mitochondrial fragmentation assay; type: cell-based, mouse; conditions: compared to vehicle treatment group, at least 100 cells per group
Procedure: FIG. 8: Mitochondrial fragmentation assay. The percentage of HdhQ111 cells with fragmented mitochondria relative to the total number of cells was quantitated. At least 100 cells per group were counted.
FIG. 9: Mitochondrial fragmentation assay. Mitochondrial morphology was determined by staining cells with anti-Tom20 antibody. Nuclei: Hoechst 33342 stain. […] Scale Bars: 60 μm; 12 μm for inset.
Mitochondrial Fragmentation Methods: As preventing the fragmentation of the mitochondria is important for maintaining the health of striatal cells in the HD in vitro model, the PLP's abilities were tested in this regard.

[4] = molecular target: T2, VCP (Homo sapiens, UniProt P55072); assay: Bio-layer interferometry (BLItz) binding to VCP
T2 construct: purchased Antibodies-online
T2 sequence (P55072 whole entry, species assumed): as the sequence (P55072 whole entry) above
Procedure: FIG. 14A-14B: Biolayer Interferometry (BLItz) measurements from in vitro assay evaluating binding between P1 and VCP (FIG. 14A) and between HV3-TAT peptide and VCP (FIG. 14B). FIG. 14A: lines from top to bottom: 100 μM, 10 μM, and 750 nM. FIG. 14B: lines from top to bottom: 10 μM, 7.5 μM, 5 μM, and 1.25 μM.
BLI Methods: With cellular VCP engagement verified as discussed in Example 2 (and shown in FIG. 3B), P1 was further assessed for VCP binding via Bio-layer Interferometry (BLI) to further study the interaction compared to HV3-TAT peptide. Binding affinity was measured by using BLItz instrument. The anti-HIS sensor (HIS2) was hydrated before the installation. After the sensor installation to the BLItz instrument, histidine tagged VCP proteins (50 μg/ml in sodium acetate buffer at pH 6.5) were immobilized on the sensor. HV3-TAT and P1 were dissolved in Tris buffer (pH 8.4) with a range of concentrations. Using BLItz instrument, the dissociation constant (KD), on-rate (ka) and off-rate (kd) of each analyte were measured.

[5] = test system: R6/2 mice; assay: mtHtt impact: mitochondrial VCP level and mtHtt aggregation in striatum; type: in vivo, mouse; conditions: for VCP level on mitochondria of striatum: ATPB loading control; for mtHtt aggregation in striatum: compared to saline treated
From the text: FIG. 34A-34B: Quantification of mitochondrial studies. FIG. 34A depicts quantification of immunoblot results for VCP levels on mitochondrial fractions from striatal extracts of WT and R6/2 mice after treatment (immunoblot not shown). ATPB refers to ATP-ase β subunit. p-value for: WT veh as compared to R62 veh: <0.0001; WT+P1 as compared to R62 veh: <0.0001; R62 veh as compared to R62+HV3-TAT: 0.0001; R62 veh as compared to R62+P1: 0.0184; R62+P1 as compared to R62+HV3-TAT: 0.2663. FIG. 34B depicts quantification of mtHtt aggregation after EM48 staining (stains not shown). p-value for: R62 veh as compared to R62+HV3-TAT: 0.0491; R62 veh as compared to R62+P1: 0.0189; R62+P1 as compared to R62+HV3-TAT: 0.8765.
In vivo Efficacy Methods—mtHtt Impact: As the pathophysiological hallmark of HD, the formation of mtHtt aggregates can be observed in striatum of HD mouse models, like R6/2 mice. […] HV3 peptide blocks mtHtt-VCP binding, and inhibits VCP mitochondrial accumulation, which reduce behavioral and neuropathological phenotypes of HD. Mitochondrial level of VCP and mtHtt aggregation were examined to test whether PLP recapitulates the mechanism of HV3 peptide. Mitochondrial fractions of striatum were isolated from mice in each treatment group. Protein levels of VCP on mitochondria were analyzed by western blotting, using ATPB as a loading control for mitochondria. mtHtt aggregation was visualized by immunohistochemical staining by anti-mtHtt antibody.

[6] = bio-layer interferometry, VCP protein

P1: PLP homopolymer having peptide side chains of SEQ ID: 1 (HVLVMSATRR), made by ROMP of norbornene peptide monomer M1 (also: side chains of polynorbornene homopolymer (PLP, ROMP of norbornene peptide monomer))
cell viability [1]: higher significance than P3 | association of VCP to mtHtt (VCP binding) [2]: exhibited evidence for binding | fragmented mitochondria [3]: significantly fewer fragmented mitochondria | decrease in dissociation constant compared to the HV3-TAT peptide ([4]; BLI, VCP): more than 150 fold | VCP level on mitochondria of striatum [5]: inhibited mitochondrial VCP accumulation to a lesser extent | mtHtt aggregation in striatum [5]: inhibited mtHtt aggregation

peptide sequence HVLVMCAT (HV3) coupled to the cell penetrating, HIV-derived TAT peptide [HV3-TAT, reference compound]
cell viability [1]: significant increases in cell viability | association of VCP to mtHtt (VCP binding) [2]: exhibited evidence for binding | fragmented mitochondria [3]: significantly fewer fragmented mitochondria | Kd ([4]; BLI, VCP): 14 µM | koff [4, 6]: 0.023 s⁻¹ | kon [4, 6]: 1600 M⁻¹ s⁻¹ | VCP level on mitochondria of striatum [5]: blocked aberrant VCP mitochondrial translocation | mtHtt aggregation in striatum [5]: inhibited mtHtt aggregation
